Series [1] in a line: Stability in liver microsomes. The class given is in vitro ADME. The conditions noted are these: 2 μM peptidomimetic, human liver microsomes, 37° C.; for half-life at 2 μM: pH 7.8, read-out: half-life (t1/2) when incubated with liver microsomes. How it is done:
(§1) Reactions were terminated by the addition of TFA/H2O (15 mL, 10% (v/v)). […] The column was equilibrated with TFA/H20, at a flow rate of 1 mL/min.
(In general: Liver microsomes are a subcellular fraction often used to study metabolism.)

The next series deals with T1, human glucagon receptor (Homo sapiens, UniProt P47871).
T1 construct: The full-length cDNA was cloned in pcDNA3.1 (Invitrogen); expressed in transfected cells
T1 sequence (P47871 26-477): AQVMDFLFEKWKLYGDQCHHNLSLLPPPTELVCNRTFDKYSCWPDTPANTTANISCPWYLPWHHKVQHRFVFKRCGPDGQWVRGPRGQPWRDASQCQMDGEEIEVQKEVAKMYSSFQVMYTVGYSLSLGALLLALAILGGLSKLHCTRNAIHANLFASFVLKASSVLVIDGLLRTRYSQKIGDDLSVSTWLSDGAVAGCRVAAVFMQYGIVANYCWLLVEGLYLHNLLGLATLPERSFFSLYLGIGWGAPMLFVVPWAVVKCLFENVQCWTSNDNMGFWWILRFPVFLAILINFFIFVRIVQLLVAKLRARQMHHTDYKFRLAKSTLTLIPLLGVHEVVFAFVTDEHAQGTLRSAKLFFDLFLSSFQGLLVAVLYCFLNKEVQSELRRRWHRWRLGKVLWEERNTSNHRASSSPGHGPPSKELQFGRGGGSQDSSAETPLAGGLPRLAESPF
Put plainly: In vitro human glucagon antagonist activity (inhibition of cAMP production) in CHO/human glucagon R cells. The note with it: with saturated concentration of glucagon peptide. The class given is cell-based. For orientation: Cyclic AMP is a second messenger, typically raised through Gs and lowered through Gi signalling.

Series [2] deals with RIN5F (Rat Insulinoma) cells. Nature of the series: In vitro glucose-dependent insulin secretion (RIN5F cell assay screening protocol). The class given is cell-based. The conditions noted are these: 16.7 mM glucose load.
The nature of series [3]: Stability in human plasma. The class given is in vitro ADME. The note with it: 2 μM peptidomimetic, pooled human plasma, 37° C.; for half-life at 2 μM: pH 7.8, read-out: half-life (t1/2) when incubated with human plasma. On the procedure: as §1
Another series addresses T2, Human GLP-1 receptor (Homo sapiens, UniProt P43220).
T2 construct: The full-length cDNA was cloned in pcDNA3.1(+); expressed in transfected cells
Nature of the series: In vitro Human GLP-1 R agonist activity (cyclic AMP determination) in CHO/human GLP1R cells. It is filed as cell-based.

The target in a further series is DPP IV (Homo sapiens, UniProt P27487). Put plainly: Stability against DPP IV enzyme. It is filed as in vitro ADME. The conditions noted are these: 37° C.; for % degradation of peptidomimetics in 24 h when incubated with DPP-IV enzyme: 2 μM peptidomimetic; for half-life at 2 μM: DPP IV enzyme, pH 7.8, 2 μM peptidomimetic, read-out: half-life (t1/2) when incubated with DPP-IV enzyme. On the procedure:
as §1

Series [4] can be described thus: Stability in simulated intestinal fluid. The class given is in vitro ADME. The conditions noted are these: 2 μM peptidomimetic, simulated intestinal fluid pH 7.5, 37° C.; for half-life at 2 μM: read-out: half-life (t1/2) when incubated with simulated intestinal fluid. On the procedure: as §1
The nature of series [5]: Stability in simulated gastric fluid. The class given is in vitro ADME. The conditions noted are these: 2 μM peptidomimetic, simulated gastric fluid pH 1.5, 37° C.; for half-life at 2 μM: read-out: half-life (t1/2) when incubated with simulated gastric fluid. On the procedure: as §1

DPP IV, sequence (P27487 whole entry, species assumed): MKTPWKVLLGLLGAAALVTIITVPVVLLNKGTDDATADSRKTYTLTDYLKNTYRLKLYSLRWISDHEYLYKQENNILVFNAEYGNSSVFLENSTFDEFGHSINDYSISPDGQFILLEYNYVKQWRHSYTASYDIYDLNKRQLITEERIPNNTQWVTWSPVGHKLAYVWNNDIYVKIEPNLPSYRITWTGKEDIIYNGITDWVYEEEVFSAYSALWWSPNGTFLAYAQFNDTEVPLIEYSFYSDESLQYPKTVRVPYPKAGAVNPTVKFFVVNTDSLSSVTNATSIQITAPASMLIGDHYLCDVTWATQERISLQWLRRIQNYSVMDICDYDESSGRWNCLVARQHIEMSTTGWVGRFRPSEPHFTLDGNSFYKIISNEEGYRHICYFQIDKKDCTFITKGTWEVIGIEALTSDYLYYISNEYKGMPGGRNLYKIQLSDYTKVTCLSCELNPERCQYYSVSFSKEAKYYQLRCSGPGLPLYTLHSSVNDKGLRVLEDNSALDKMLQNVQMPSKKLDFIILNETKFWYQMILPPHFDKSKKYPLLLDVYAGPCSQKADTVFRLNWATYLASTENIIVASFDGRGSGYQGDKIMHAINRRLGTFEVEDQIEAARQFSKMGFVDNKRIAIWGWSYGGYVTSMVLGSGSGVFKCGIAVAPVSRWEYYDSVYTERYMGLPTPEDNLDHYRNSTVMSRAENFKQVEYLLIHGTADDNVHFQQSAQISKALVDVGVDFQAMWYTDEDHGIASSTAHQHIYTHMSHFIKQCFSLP
T2 sequence (P43220 24-463): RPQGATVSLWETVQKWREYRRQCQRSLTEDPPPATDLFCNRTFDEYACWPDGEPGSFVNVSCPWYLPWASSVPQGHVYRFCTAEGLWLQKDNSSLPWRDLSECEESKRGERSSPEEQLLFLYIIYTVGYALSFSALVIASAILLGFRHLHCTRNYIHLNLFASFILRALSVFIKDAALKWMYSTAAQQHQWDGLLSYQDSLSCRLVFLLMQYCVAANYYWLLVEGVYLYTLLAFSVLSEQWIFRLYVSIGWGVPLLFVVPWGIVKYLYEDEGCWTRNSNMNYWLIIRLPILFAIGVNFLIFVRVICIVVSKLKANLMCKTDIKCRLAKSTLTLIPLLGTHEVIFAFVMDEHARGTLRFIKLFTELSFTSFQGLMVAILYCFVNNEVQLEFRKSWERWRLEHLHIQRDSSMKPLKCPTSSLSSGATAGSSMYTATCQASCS

As for `CCc1cc(OC)ccc1-c1ccc(CC(NC(=O)[C@H](CC(=O)O)NC(=O)[C@H](CO)NC(=O)[C@@H](NC(=O)[C@H](Cc2ccccc2)NC(=O)[C@@H](NC(=O)CNC(=O)C(CCC#N)NC(=O)C(C)(C)NC(=O)[C@@H](N)Cc2c[nH]cn2)[C@@H](C)O)[C@@H](C)O)C(=O)NC(CCCc2ccccc2)C(N)=O)cc1` (single isomer, unassigned) [compound 29], in series [1], the “half-life (t1/2) when incubated with liver microsomes” value is “(5) h”. In addition, the “% degradation of peptidomimetics in 24 h when incubated with liver microsomes” value (“% degradation … with liver microsomes” for short) in series [1] was determined as 32%. Further, the “Human Glucagon receptor antagonistic activity shown as inhibition of cAMP production of Glucagon peptide” value at human glucagon receptor (1 nM test compound) is 20 ± 0.06 pmol/ml/μg prt; on human glucagon receptor (10 nM test compound), 18 ± 0.09 pmol/ml/μg prt; on human glucagon receptor (100 nM test compound) it was 16 ± 0.01 pmol/ml/μg prt; on human glucagon receptor (1 μM test compound), 14 ± 0.03 pmol/ml/μg prt; at human glucagon receptor (10 μM test compound), 12 ± 0.01 pmol/ml/μg prt. In addition, the Insulin secretion in series [2] (0.1 nM test compd.) is 16.3 ± 0.15 pg/µg/h; in series [2] (1 nM test compd.), 22.4 ± 0.21 pg/µg/h; in series [2] (10 nM test compd.) it was 36.2 ± 0.11 pg/µg/h. Besides, in series [3], the “% degradation of peptidomimetics in 24 h when incubated with human plasma” value (“% degradation … with human plasma” for short) stood at 00%. Moreover, the half-life at 2 μM (in series [3]; at DPP IV; in series [4]; in series [5]) was above 1440 min throughout. In addition, the “Human GLP-1 R activity (cAMP release), % activity with respect to control” value was 96 ± 0.09% on Human GLP-1 receptor (1 nM test compound); 99 ± 0.07% at Human GLP-1 receptor (10 nM test compound); 99 ± 0.04% at Human GLP-1 receptor (100 nM test compound); 99 ± 0.01% on Human GLP-1 receptor (1 μM test compound); 99 ± 0.08% on Human GLP-1 receptor (10 μM test compound). In addition, the “% degradation of peptidomimetics in 24 h when incubated with DPP-IV enzyme” value (“% degradation … with DPP-IV enzyme” for short) at DPP IV is reported as 00%. Besides, the “% degradation of peptidomimetics in 24 h when incubated with simulated intestinal fluid” value (from here on “% degradation … with simulated intestinal fluid”) in series [4] is given as 00%. In series [5], the “% degradation of peptidomimetics in 24 h when incubated with simulated gastric fluid” value (shortened to “% degradation … with simulated gastric fluid”) is 00%.

As for `CCc1cc(OC)ccc1-c1ccc(CC(NC(=O)[C@H](CC(=O)O)NC(=O)[C@H](CO)NC(=O)[C@@H](NC(=O)[C@H](Cc2ccccc2)NC(=O)[C@@H](NC(=O)CNC(=O)C(CCC#N)NC(=O)C(C)(C)NC(=O)[C@@H](N)Cc2c[nH]cn2)[C@@H](C)O)[C@@H](C)O)C(=O)NC(CCCc2cc(C)cc(C)c2)C(N)=O)cc1` (single isomer, unassigned) [compound 30], the “half-life (t1/2) when incubated with liver microsomes” value in series [1] was “(5) h”. Also, in series [1], the “% degradation … with liver microsomes” value amounted to 33%. For the same molecule, the “Human Glucagon receptor antagonistic activity shown as inhibition of cAMP production of Glucagon peptide” value on human glucagon receptor (1 nM test compound) was 22 ± 0.03 pmol/ml/μg prt; on human glucagon receptor (10 nM test compound) it was 21 ± 0.05 pmol/ml/μg prt; on human glucagon receptor (100 nM test compound), 20 ± 0.07 pmol/ml/μg prt; on human glucagon receptor (1 μM test compound), 18 ± 0.04 pmol/ml/μg prt; on human glucagon receptor (10 μM test compound), 18 ± 0.03 pmol/ml/μg prt. The Insulin secretion worked out at 17.1 ± 0.11 pg/µg/h in series [2] (0.1 nM test compd.), 23.1 ± 0.16 pg/µg/h in series [2] (1 nM test compd.) and 37.0 ± 0.29 pg/µg/h in series [2] (10 nM test compd.). The “% degradation … with human plasma” value in series [3] is 00%. The half-life at 2 μM (in series [3]; at DPP IV; in series [4]; in series [5]) was above 1440 min throughout. Further, the “Human GLP-1 R activity (cAMP release), % activity with respect to control” value at Human GLP-1 receptor (1 nM test compound) stood at 38 ± 0.12%; on Human GLP-1 receptor (10 nM test compound) it was 78 ± 0.15%; at Human GLP-1 receptor (100 nM test compound), 86 ± 0.18%; at Human GLP-1 receptor (1 μM test compound) it was 95 ± 0.03%; on Human GLP-1 receptor (10 μM test compound) it was 98 ± 0.09%. In addition, the “% degradation … with DPP-IV enzyme” value on DPP IV came to 00%. In addition, the “% degradation … with simulated intestinal fluid” value in series [4] is on record as 00%. The “% degradation … with simulated gastric fluid” value in series [5] was 00%.

Regarding `CCc1cc(OC)ccc1-c1ccc(CC(NC(=O)[C@H](CC(=O)O)NC(=O)[C@H](CO)NC(=O)[C@@H](NC(=O)C(C)(Cc2ccccc2F)NC(=O)[C@@H](NC(=O)CNC(=O)[C@H](CC(C(F)(F)F)C(F)(F)F)NC(=O)C(C)(C)NC(=O)[C@H](Cc2c[nH]cn2)NC(C)=O)[C@@H](C)O)[C@@H](C)O)C(=O)NC(CCCc2ccccc2)C(N)=O)cc1` (single isomer, unassigned) [compound 210], the “% degradation … with liver microsomes” value in series [1] came out at 100%. Moreover, the half-life at 2 μM in series [1], in series [4] and in series [5] was 30 min in each case. Also, the Insulin secretion in series [2] (0.1 nM test compd.) stood at 11.9 ± 0.17 pg/µg/h; in series [2] (1 nM test compd.), 14.2 ± 0.13 pg/µg/h; in series [2] (10 nM test compd.) it was 27.6 ± 0.16 pg/µg/h. For the same molecule, the “half-life (t1/2) when incubated with human plasma” value in series [3] is on record as “(9) h”. The “% degradation … with human plasma” value in series [3] came out at 77%. Moreover, the “Human GLP-1 R activity (cAMP release), % activity with respect to control” value is reported as 46 ± 0.022% at Human GLP-1 receptor (1 nM test compound); 85 ± 0.46% on Human GLP-1 receptor (10 nM test compound); 90 ± 0.41% on Human GLP-1 receptor (100 nM test compound); 99 ± 0.66% on Human GLP-1 receptor (1 μM test compound); 99 ± 0.03% at Human GLP-1 receptor (10 μM test compound). At DPP IV, the “% degradation … with DPP-IV enzyme” value is on record as 75%. For the same molecule, the “% degradation … with simulated intestinal fluid” value in series [4] is on record as 100%. Further, in series [5], the “% degradation … with simulated gastric fluid” value was 100%.

`CCc1cc(OC)ccc1-c1ccc(CC(NC(=O)[C@H](CC(=O)O)NC(=O)[C@H](CO)NC(=O)[C@@H](NC(=O)C(C)(Cc2ccccc2)NC(=O)[C@@H](NC(=O)CNC(=O)[C@H](CC(C(F)(F)F)C(F)(F)F)NC(=O)C(C)(C)NC(=O)[C@@H](N)Cc2c[nH]cn2)[C@@H](C)O)[C@@H](C)O)C(=O)NC(CCCc2ccccc2)C(N)=O)cc1` (single isomer, unassigned) [compound 230]: the “% degradation … with liver microsomes” value in series [1] is 100%. The half-life at 2 μM in series [1], in series [4] and in series [5] was 30 min throughout. The values for the Insulin secretion in series [2] (0.1 nM test compd.), in series [2] (1 nM test compd.) and in series [2] (10 nM test compd.) were 12.1 ± 0.51 pg/µg/h, 14.1 ± 0.19 pg/µg/h and 28.1 ± 0.29 pg/µg/h, respectively. Besides, in series [3], the “half-life (t1/2) when incubated with human plasma” value is given as “(9) h”. In addition, the “% degradation … with human plasma” value in series [3] was determined as 70%. For the same molecule, the “Human GLP-1 R activity (cAMP release), % activity with respect to control” value at Human GLP-1 receptor (1 nM test compound) is on record as 99 ± 0.12%; on Human GLP-1 receptor (10 nM test compound), 99 ± 0.08%; at Human GLP-1 receptor (100 nM test compound), 99 ± 0.11%; on Human GLP-1 receptor (1 μM test compound) it was 99 ± 0.12%; at Human GLP-1 receptor (10 μM test compound) it was 99 ± 0.16%. Further, the “% degradation … with DPP-IV enzyme” value at DPP IV came to 86%. Further, the “% degradation … with simulated intestinal fluid” value in series [4] was 100 ) %. Besides, the “% degradation … with simulated gastric fluid” value in series [5] is 100%.

The values are drawn from US8883963B2 (Cadila Healthcare Limited, priority 2007, dated 2014).
